Among the data in US6071908A (priority 1995, dated 2000) are IC50 values, retold here.

Counter-ions that a name gives are not always drawn. Like-named read-outs stand apart in the source and are kept apart here.

One assay relates to UV4 cells. The assay can be described thus: cells. It counts as cell-based. The note with it: Cricetulus griseus.
The subject of the next assay is SKOV3 cells. Kind of assay: cells. The class given is cell-based. As to conditions: Homo sapiens.
The mark [1] stands for this setting: UV4, light or radiation study, 4 h, read-out: IC50, P (unirradiated prodrug).
Where [2] appears, read: SK-OV-3, light or radiation study, 4 h, read-out: IC50, P (unirradiated prodrug).
[3] abbreviates: UV4, 4 h, read-out: IC50, E (authentic effector).
Setting [4] is: SK-OV-3, 4 h, read-out: IC50, E (authentic effector).

Broadly, the IC50 is the concentration that gives 50% inhibition. Take `CN(C)CCNc1ccc(NCC[N+](C)(C)Cc2ccc([N+](=O)[O-])cc2)c2c1C(=O)c1c(O)ccc(O)c1C2=O` [Compound 27, 1-[(2-(4-nitrobenzyl)dimethylammonium)ethylamino]-4-[(2-dimethylamino)ethylamino]-5,8-dihydroxy-9,10-anthracenedione chloride]: the IC50 with UV4 cells (setting [1]) was determined as 0.27 ± 0.04 µM; in the assay on SKOV3 cells (setting [2]) it was 9.7 µM. The corresponding values for `C[N+](C)(CCNC(=O)c1cccc2cc3ccccc3nc12)Cc1ccc([N+](=O)[O-])cc1` [Compound 15, 2-[N-(acridin-4-yl)carbonyl]aminoethyl-(dimethyl)-4-nitrobenzylammonium bromide] are greater than 150 µM and greater than 150 µM. Consider `C[N+](C)(CCNC(=O)c1cccc2cc3ccccc3nc12)Cc1ccc([N+](=O)[O-])s1` [Compound 16, 2-[N-(acridin-4-yl)carbonyl]aminoethyl-(dimethyl)-(5-nitro-2-thienyl)methylammonium chloride], for which the figures for the half-inhibitory concentration (IC50) in the assay with UV4 cells (setting [1]) and in the assay with SKOV3 cells (setting [2]) were 40 ± 8 µM and 169 ± 58 µM, respectively. With `Cc1cccc2c(N)c3cccc(C(=O)NCC[N+](C)(C)Cc4ccc([N+](=O)[O-])n4C)c3nc12` [Compound 21, 2-(N-[9-amino-5-methylacridin-5-yl]carbonyl)aminoethyl-(dimethyl)[1-methyl-5-nitro-2-pyrrolyl]methylammonium chloride], in the assay on UV4 cells (setting [1]), the IC50 worked out at 2 ± 0.4 µM. In the case of `Cc1cccc2c(N)c3cccc(C(=O)NCC[N+](C)(C)Cc4ccc([N+](=O)[O-])cc4)c3nc12` [Compound 17, 2-[N-(9-amino-5-methylacridin-4-yl)carbonyl]aminoethyl-(dimethyl)-4-nitrobenzylammonium bromide], the IC50 with UV4 cells (setting [1]) amounted to 0.78 µM; in the assay on SKOV3 cells (setting [2]), 4 ± 0.1 µM. On to `Cc1cccc2c(N)c3cccc(C(=O)NCC[N+](C)(C)Cc4ccc([N+](=O)[O-])s4)c3nc12` [Compound 19, 2-[N-(9-amino-5-methylacridin-4-yl)carbonyl]aminoethyl-(dimethyl)-5-nitro-2-thienylmethylammonium chloride], for which, in the assay with UV4 cells (setting [1]), the IC50 was 0.16 ± 0.03 µM. `Cc1cccc2c(N)c3cccc(C(=O)NCC[N+](C)(C)Cc4ccccc4[N+](=O)[O-])c3nc12` [Compound 18, 2-[N-(9-amino-5-methylacridin-4-yl)carbonyl]aminoethyl-(dimethyl)-2-nitrobenzyl]ammonium chloride]: the IC50 with UV4 cells (setting [1]) was 3.1 µM. On to `CN(C)CCNC(=O)c1cccc2cc3ccccc3nc12` [Compound 37, N-[(dimethylamino)ethyl]acridine-4-carboxamide, reference compound], for which the IC50 in the assay on UV4 cells (setting [3]) was determined as 0.49 ± 0.11 µM; in the assay on SKOV3 cells (setting [4]), 3.4 ± 0.8 µM.

As for `C[N+](C)(Cc1ccc([N+](=O)[O-])cc1)c1ccc2c(c1)N(S(C)(=O)=O)CC2CCl` (centres unmarked) [Compound 11, 3-(chloromethyl)-6-[N,N-dimethyl-N-(4-nitrobenzyl)-ammonio]-1-(methanesulfonyl)indoline chloride], the half-maximal inhibitory concentration (IC50) with UV4 cells (setting [1]) was 1140 ± 122 µM. On to `Cc1cccc2c(N)c3cccc(C(=O)NCC[N+](C)(C)Cc4c([N+](=O)[O-])ncn4C)c3nc12` [Compound 22, 2-(N-[9-amino-5-methylacridin-4-yl]carbonyl)aminoethyl-(dimethyl)-(1-methyl-4-nitro-5-imidazolyl)methylammonium chloride], for which the IC50 in the assay on UV4 cells (setting [1]) turned out to be 1.9 ± 0.4 µM.

With `CN(C)c1ccc2c(c1)N(S(C)(=O)=O)CC2CCl` (centres unmarked) [Compound 12, reference compound], the IC50 in the assay on UV4 cells (setting [3]) worked out at 15 ± 6 µM. In the case of `Cc1cccc2c(N)c3cccc(C(=O)NCC[N+](C)(C)Cc4nc(N5CCOCC5)sc4[N+](=O)[O-])c3nc12` [Compound 20, 2-[N-(9-amino-5-methylacridin-4-yl)carbonyl]aminoethyl-(dimethyl)-2-[4-morpholino-5-nitro-4-thiazolylmethyl]ammonium chloride], the half-inhibitory concentration (IC50) in the assay on UV4 cells (setting [1]) was found to be 1 ± 0.3 µM. In the case of `NCCNCCCNC(=O)c1cccc2cc3ccccc3nc12` [Compound 47, N-[3-[(2-Aminoethyl)amino]propyl]acridine-4-carboxamide trihydrochloride, reference compound], the IC50 is 1.6 ± 0.4 µM with UV4 cells (setting [3]) and 1.6 ± 0.3 µM in the assay with SKOV3 cells (setting [4]). The corresponding values for `Cc1cccc2c(N)c3cccc(C(=O)NCCN(C)C)c3nc12` [Compound 38, (N,N-dimethylaminoethyl)-9-amino-5-methylacridine-4-carboxamide, reference compound] are 0.011 µM and 0.046 ± 0.002 µM.

Consider `CN(C)CCNc1ccc(NCCN(C)C)c2c1C(=O)c1c(O)ccc(O)c1C2=O` [Compound 46, 1,4-bis[(2-dimethylamino)-ethylamino]-5,8-dihydroxy-9,10-anthracenedione, reference compound], for which the IC50 in the assay on UV4 cells (setting [3]) was found to be 0.0021 µM; in the assay on SKOV3 cells (setting [4]) it was 0.074 ± 0.0004 µM.
